The test system of data set [1] is L1210 cells. Briefly: In vitro uptake by L1210 tumor cells. The following applies: 24 hours, 10 μg/ml; for Uptake in vitro: average + SD of three determinations. The class given is cell-based, mouse. As for the experimental part:
Uptake of DHE or CHE, purified by gel-exclusion chromatography, was measured by extraction of cells after 24 hour incubations in vitro. Cell pellets (20-30 mg) were suspended in 800 μL of phosphate buffer (pH 3.5) and shaken for 3 minutes with 2 ml of a 1:1 mixture of methanol: chloroform. The lower phase was collected by centrifugation and used for measurement of absorbance at 400 nm.
In vitro uptake of DHE, CHE and HPD, hematoporphyrin, mesochlorin and bonellin by tumor cells was studied using L1210 cells incubated for 24 hours with 10 μg/ml concentrations of each respective compound. The cells were then washed for 30 minutes in fresh medium at 37° C. and drug concentrations were determined.

The subject of data set [2] is Lewis lung tumor. Briefly: In vivo accumulation in Lewis lung tumor (extraction, fluorescence). The following applies: for accumulation of fluorescent components at tumor loci (in words) / Uptake in vivo: 5 mg/kg i.p., 48 hours after injection; for Uptake in vivo: average + SD of three determinations; for fluorescence emission of tumor extracts (in words): excitation 400 nm, FIG. IV. On the procedure: In vivo biological studies were conducted using DHE, CHE, HPD, hematoporphyrin, mesochlorin and bonellin. The Lewis lung tumor was maintained in female C57BL/6 mice by S.C. implant. Seven days after implantation, a respective compound was administered to test mice by i.p. injection at a dosage level of 5 mg/kg. Forty-eight hours after injection, each tumor was excised, weighed and homogenized in 50 mM 4-(2-hydroxyethyl)-1-piperazineethanesulfonic acid buffer (pH7) containing 10 mM cetyltrimethyl ammonium bromide (1 m./100 mg tissue). The resulting homogenates were shaken with 2.5 volumes of methanol: chloroform (1:1) and the phases separated by centrifugation. Under these conditions, fluorescence is quantitatively extracted into the chloroform-rich phase. These extracts were used for determination of fluorescence emission spectra (excitation wave length, 400 nm). […] For analytical studies, the extracts were evaporated and the residue hydrolyzed in 0.5 M HCl at 37° C. for 18 hours.

The test system of data set [3] is L1210 mouse/leukemia cells. As to the kind of experiment: Photodynamic effects on cell viability as a function of irradiation wavelength (soft-agar clonogenic assay). The following applies: for Action spectrum: cell viability after irradiation at 620 nm (mean + SD of control percentage) / Action spectrum: cell viability after irradiation at 630 nm (mean + SD of control percentage) / Action spectrum: cell viability after irradiation at 640 nm (mean + SD of control percentage) / Action spectrum: cell viability after irradiation at 650 nm (mean + SD of control percentage): 24 h incubation, 5 g/ml (so in the source), 2000 J/m^2, five minutes; for optimal phototoxic light wave length: cells loaded for 24 hours. In kind it is cell-based. As for the experimental part: In order to determine the photosensitization capacity of DHE and CHE, respectively, comparison in vitro tests were prepared using L1210 mouse/leukemia cells grown in culture using Fischer's medium plus 10 percent horse serum. Cell suspensions (7 mg/ml wet weight) were incubated for 24 hours in growth medium containing the 5 µg/ml of the respective photosensitizer. The cell suspensions were, then, washed for 30 minutes at 37° C. in fresh medium to remove readily diffusible porphyrine.
Irradiation was carried out for five minutes (fluence =2000 J/m^2) using a 100 w tungsten-halogen lamp with a wave length selected via narrow bandpass interference filters (=10 nm). Photodynamic effects on cell viability, as a function of irradiation wavelength, were measured by a soft-agar clonogenic assay in the manner described in Kessel, "Determinants of Hematoporphyrincatalyzed Photosensitization" 36 Photochemical Photobiology pp. 99-101 (1982) which is incorporated herein by reference. Light filters were purchased from the Oriel Corp. of Stanford, CT, and the light flux was measured with a thermopile obtained from the same source.

Data set [4] in a line: Storage stability of aqueous solutions of CHE. In kind it is physicochemical. As for the experimental part:
The storage stability of aqueous solutions of CHE (ph 7.5) is determined at -20° C. and at 4° C. respectively.

Turning to `CC1=C(CCC(=O)O)c2cc3nc(cc4[nH]c(cc4C)cc4[nH]c(cc1n2)cc4C)C(C)(C)C3CCC(=O)O` (centres unmarked) [Bonellin, bonellin], the Uptake in vitro in data set [1] was determined as 0.06 µg/100 mg cells. In addition, in data set [2], the “accumulation of fluorescent components at tumor loci (in words)” value is recorded as “no detectible concentration of fluorescent products at tumor loci” and the Uptake in vivo is on record as less than 0.01.

On to `CCC1=C(C)c2cc3[nH]c(cc4nc(cc5[nH]c(cc1n2)c(C)c5CCC(=O)OC(C)C1=C(C)c2cc5[nH]c(cc6nc(cc7[nH]c(cc1n2)c(C)c7CCC(=O)O)C(CCC(=O)O)=C6C)c(C)c5C(C)O)C(CCC(=O)O)C4C)c(C)c3CC` (centres unmarked) [CHE, chlorin-hematoporphyrin ester], for which the “in vitro accumulation compared between drugs (in words)” value in data set [1] is “almost identical”. In data set [3], the “Action spectrum: cell viability after irradiation at 620 nm (mean + SD of control percentage)” value was 96 + 5 control percentage, the “Action spectrum: cell viability after irradiation at 630 nm (mean + SD of control percentage)” value is reported as 87 + 5 control percentage, the “Action spectrum: cell viability after irradiation at 640 nm (mean + SD of control percentage)” value is 10 + 2 control percentage and the “Action spectrum: cell viability after irradiation at 650 nm (mean + SD of control percentage)” value is recorded as 65 + 2 control percentage. Besides, in data set [3], the “optimal phototoxic light wave length” value was 640 nm. The “lethality relative to DHE” value in data set [3] (constant flux of 2000 J/M^2, CHE vs DHE) came to 5 fold. Moreover, the “storage stability of aqueous solution at 4° C.” value in data set [4] (pH 7.5, 4° C.) is “gradual hydrolysis of the ester-linkage”. Moreover, the “storage stability of aqueous solution at -20° C.” value in data set [4] (pH 7.5, -20° C.) is recorded as “remained stable”. Besides, the “fluorescence emission of tumor extracts (in words)” value in data set [2] is on record as “greater tumor fluorescence emission at 647 nm than at 627 nm”.

As to Dihematoporphyrin ester [DHE], in data set [1], the “in vitro accumulation compared between drugs (in words)” value is recorded as “almost identical” and the Uptake in vitro was found to be 0.49. For the same compound, in data set [3], the “Action spectrum: cell viability after irradiation at 620 nm (mean + SD of control percentage)” value is reported as 68 + 4 control percentage, the “Action spectrum: cell viability after irradiation at 630 nm (mean + SD of control percentage)” value is given as 45 + 2 control percentage, the “Action spectrum: cell viability after irradiation at 640 nm (mean + SD of control percentage)” value is on record as 85 + 5 control percentage and the “Action spectrum: cell viability after irradiation at 650 nm (mean + SD of control percentage)” value is given as 96 + 3 control percentage. In addition, the “optimal phototoxic light wave length” value in data set [3] worked out at 630 nm. Also, in data set [2], the “accumulation of fluorescent components at tumor loci (in words)” value is “accumulation of fluorescent components at tumor loci”, the Uptake in vivo is 2.1 and the “fluorescence emission of tumor extracts (in words)” value is recorded as “fluorescence at 627 nm only”.

The record behind these values is US4861876A, “Hematoporphyrin derivative and method of preparation and purification” (priority 1986, dated 1989).
